The source of these data is US5314932A, “Antifouling coating and method for using same” (priority 1993, dated 1994).

For data set [1], the system named is nauplius stage larvae. The data set can be described thus: Toxicity Assay for Nauplius Larvae (naupliar toxicity). The note with it: for Naupliar Toxicity (LD50): lethal dose killing 50 percent of naupliar stage larvae, 100 kDa-filtered seawater, 28° C., approx. 15 h light and 9 h darkness, 1440 min; for LD50 compared with TBT, digoxigenin, and digoxin: nauplius stage larvae, comparison with known antifouling agents. The protocol: (§1) Adult individuals of the acorn barnacle Balanus amphritrite Darwin were collected from the Duke University Marine Laboratory seawall in Beaufort, N.C. Collected specimens were crushed, and the nauplius stage larvae released therefrom were cultured to cyprid stage for cyprid-state assays according to the methods of Rittschof et al., J. Exp. Mar. Biol. Ecol. 82:131-146 (1984).
Toxicity assays were conducted by adding nauplius stage larvae to Falcon 50×9 mm polystyrene Petri dishes containing 5 ml of 100 kDa-filteredseawater. Experimental dishes received a dose of bufalin, cinobufatalin, TBT, digoxigenin, or digoxin. Doses receiving no test compound served as negative controls. The dishes were incubated at 28° C. under light for approximately 15 hours and in darkness for approximately 9 hours.
After incubation, the dishes were examined under a dissecting microscope to determine whether the larvae were alive or dead. […] The number of dead and living larvae was counted and recorded.
Data for toxicity assays performed on nauplius stage larvae is summarized in Table 1, which lists the lethal dose for each compound required to kill 50 percent of naupliar stage larvae in a sample (LD50).

Data set [2] has as its system cyprid stage larvae. Format: in vivo, acorn barnacle Balanus amphritrite Darwin. The settings on record: for EC50 compared with TBT, digoxigenin, and digoxin: cyprid stage larvae settlement, comparison in words; for Cyprid Settlement (ED50): dose which prevents settlement of 50 percent of cyprid stage larvae (EC50), three-day old cyprids, 100 kDa-filtered seawater (approx. 35 ppt), 28° C., approx. 15 h light and 9 h darkness. The procedure:
as §1
Settlement assays were performed as previously described by Rittschof et al., J. Chem. Ecol. 11:551-563 (1985). Three-day old cyprid larvae were added to Falcon 50×9 mm polystyrene petri dishes. Each dish contained 5 ml of 100 kDa-filtered seawater (approximately 35 ppt salinity). […] Doses were varied in an effort to determine inhibition levels. Dishes receiving no test compound served as negative controls. The number of replicate dishes used in each assay ranged from 2 to 4, depending on larval availability. The dishes were incubated at 28° C. under light for approximately 15 hours and in darkness for approximately 9 hours.
After incubation, the dishes were examined under a dissecting microscope to determine whether larvae were still alive. The larvae were then euthanized by the addition of several drops of 10 percent formalin. The numbers of attached and unattached larvae were then counted.
Settlement was calculated as the percentage of total larvae attached to the dish. Differences in the rate of settlement for test dishes versus controls were assessed for statistical significance through the use of a G test for independence described by Sokal et al., Biometry (Freeman & Co., San Francisco 1981).

For the molecule `C[C@]12CC[C@H](O)C[C@H]1CC[C@@H]1[C@@H]2CC[C@]2(C)[C@@H](c3ccc(=O)oc3)CC[C@]12O` [Bufalin, 3,14-dihydroxybufa-20,22 dienolide], in data set [1], the “Naupliar Toxicity (LD50)” value was 27 ng/L; the “LD50 compared with TBT, digoxigenin, and digoxin” value (from here on “LD50 compared with TBT”) was “much lower LD50 values than known antifouling agents TBT, digoxigenin, and digoxin”. In addition, in data set [2], the “EC50 compared with TBT, digoxigenin, and digoxin” value (shortened to “EC50 compared with TBT”) was “much lower EC50 values than TBT, digoxigenin, and digoxin”; the “Cyprid Settlement (ED50)” value worked out at 19 ng/L.

In the case of `CC(=O)O[C@H]1[C@H]2O[C@]23[C@@H]2CC[C@@H]4C[C@@H](O)CC[C@]4(C)[C@H]2CC[C@]3(C)[C@H]1c1ccc(=O)oc1` [Cinobufagin, 16-(acetyloxy)-14,15-epoxy-3 hydroxybufa-20,22-enolide], in data set [1], the “Naupliar Toxicity (LD50)” value is reported as 37 ng/L; the “LD50 compared with TBT” value is “much lower LD50 values than known antifouling agents TBT, digoxigenin, and digoxin”. Moreover, in data set [2], the “EC50 compared with TBT” value is “much lower EC50 values than TBT, digoxigenin, and digoxin”; the “Cyprid Settlement (ED50)” value is given as 162 ng/L.

`CC(=O)O[C@H]1[C@H]2O[C@]23[C@@H]2CC[C@]4(O)C[C@@H](O)CC[C@]4(C)[C@H]2CC[C@]3(C)[C@H]1c1ccc(=O)oc1` [Cinobufotalin, 16-(acetyloxy)-14,15-epoxy-3,5dihydroxybufa-20,22-enolide]: in data set [1], the “Naupliar Toxicity (LD50)” value is given as 837 ng/L; the “LD50 compared with TBT” value was “much lower LD50 values than known antifouling agents TBT, digoxigenin, and digoxin”. Besides, in data set [2], the “EC50 compared with TBT” value was “much lower EC50 values than TBT, digoxigenin, and digoxin”; the “Cyprid Settlement (ED50)” value was 2,600 ng/L.

Regarding `C[C@]12CC[C@H](O)C[C@H]1CC[C@@H]1[C@@H]2C[C@@H](O)[C@]2(C)[C@@H](C3=CC(=O)OC3)CC[C@]12O` [Digoxigenin, reference compound], in data set [1], the “Naupliar Toxicity (LD50)” value was 3,720 ng/L. The “Cyprid Settlement (ED50)” value in data set [2] was > 50,000 ng/L.

With `C[C@H]1O[C@@H](O[C@H]2[C@@H](O)C[C@H](O[C@H]3[C@@H](O)C[C@H](O[C@H]4CC[C@@]5(C)[C@H](CC[C@@H]6[C@@H]5C[C@@H](O)[C@]5(C)[C@@H](C7=CC(=O)OC7)CC[C@]65O)C4)O[C@@H]3C)O[C@@H]2C)C[C@H](O)[C@@H]1O` [Digoxin, reference compound], the “Naupliar Toxicity (LD50)” value in data set [1] is reported as 5,450 ng/L. In addition, the “Cyprid Settlement (ED50)” value in data set [2] was 6,300 ng/L.

`CCC[CH2][Sn]([Cl])([CH2]CCC)[CH2]CCC` [TBT Chloride, tri-n-butyl tin chloride, reference compound]: in data set [1], the “Naupliar Toxicity (LD50)” value is on record as ~3,400 ng/L.
